Measured values published in ChEMBL document CHEMBL5465560, “Selectivity Literature for EUbOPEN Chemogenomic Library” (2024).
Blank lines part the entries; values can stand above or below the compound they belong to.

Columns and labels:
[1] = target: Serine/threonine-protein kinase MRCK gamma (Homo sapiens) (UniProt Q6DT37); assay: Selectivity interaction (Kinase panel (Z-LYTE Assay)) EUB0001632a CDC42BPG; settings: at 10 µM
[2] = target: Interferon-induced, double-stranded RNA-activated protein kinase (Homo sapiens) (UniProt P19525); assay: Selectivity interaction (KinomeScan (DiscoverX)) EUB0000666a EIF2AK2; settings: at 10 µM
[3] = tested on: T1, Receptor-type tyrosine-protein kinase FLT3 (Homo sapiens), P36888 [D835Y]; assay: (§1) Selectivity interaction (SelectScreen profiling (Invitrogen)) EUB0000607a FLT3; settings: at 2 µM
T1 sequence (whole entry): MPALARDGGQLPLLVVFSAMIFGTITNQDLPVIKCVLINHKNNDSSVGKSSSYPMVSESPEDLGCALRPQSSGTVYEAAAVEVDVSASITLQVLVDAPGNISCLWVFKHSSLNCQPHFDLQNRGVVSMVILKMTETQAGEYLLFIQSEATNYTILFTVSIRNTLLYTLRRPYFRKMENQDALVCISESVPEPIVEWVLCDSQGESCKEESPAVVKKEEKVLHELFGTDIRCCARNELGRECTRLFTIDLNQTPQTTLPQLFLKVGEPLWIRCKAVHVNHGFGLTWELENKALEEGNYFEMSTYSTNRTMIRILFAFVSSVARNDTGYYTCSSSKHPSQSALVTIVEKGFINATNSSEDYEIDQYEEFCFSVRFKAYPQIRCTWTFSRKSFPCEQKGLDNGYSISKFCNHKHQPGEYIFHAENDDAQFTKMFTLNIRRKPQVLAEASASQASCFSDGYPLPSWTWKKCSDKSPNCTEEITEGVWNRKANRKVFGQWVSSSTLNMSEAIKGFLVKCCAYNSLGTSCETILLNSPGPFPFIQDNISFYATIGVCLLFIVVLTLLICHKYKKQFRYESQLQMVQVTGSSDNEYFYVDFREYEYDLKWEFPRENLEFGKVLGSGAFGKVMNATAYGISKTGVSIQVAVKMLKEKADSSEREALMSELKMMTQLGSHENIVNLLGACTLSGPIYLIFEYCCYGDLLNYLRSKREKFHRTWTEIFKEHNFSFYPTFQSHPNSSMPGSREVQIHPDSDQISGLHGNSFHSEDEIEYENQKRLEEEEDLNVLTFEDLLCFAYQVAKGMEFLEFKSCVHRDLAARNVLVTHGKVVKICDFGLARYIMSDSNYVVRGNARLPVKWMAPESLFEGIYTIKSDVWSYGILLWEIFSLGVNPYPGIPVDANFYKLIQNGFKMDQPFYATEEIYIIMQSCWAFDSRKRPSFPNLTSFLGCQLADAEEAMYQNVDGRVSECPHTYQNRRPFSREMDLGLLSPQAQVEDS

[4] = target: Receptor-type tyrosine-protein kinase FLT3 (Homo sapiens) (UniProt P36888); assay: as §1; settings: at 2 µM
[5] = target: Cyclin-dependent kinase 5/CDK5 activator 1 (Homo sapiens) (UniProt Q00535+Q15078); assay: Selectivity interaction (Upstate Kinase Profiler service (Millipore)) EUB0000056c CDK5; type: protein-complex assay; settings: at 1 µM
[6] = target: Serine/threonine-protein kinase WNK1 (Homo sapiens) (UniProt Q9H4A3); assay: Selectivity interaction (ActivX KiNativ screen (kinase selectivity in THP-1 cell lysates)) EUB0000639a WNK1; type: subcellular; settings: lysate
[7] = target: Serine/threonine-protein kinase B-raf (Homo sapiens) (UniProt P15056); assay: Selectivity interaction (Kinase panel (DSF assay)) EUB0001559a BRAF
[8] = target: T2, Mitogen-activated protein kinase kinase kinase kinase 3 (Homo sapiens) (UniProt Q8IVH8); assay: Selectivity interaction (Ambit KINOMEscan and KiNATiv profiling in Jurkat cells) EUB0000090b MAP4K3; type: cell-based; settings: at 1 µM
T2 sequence (whole entry): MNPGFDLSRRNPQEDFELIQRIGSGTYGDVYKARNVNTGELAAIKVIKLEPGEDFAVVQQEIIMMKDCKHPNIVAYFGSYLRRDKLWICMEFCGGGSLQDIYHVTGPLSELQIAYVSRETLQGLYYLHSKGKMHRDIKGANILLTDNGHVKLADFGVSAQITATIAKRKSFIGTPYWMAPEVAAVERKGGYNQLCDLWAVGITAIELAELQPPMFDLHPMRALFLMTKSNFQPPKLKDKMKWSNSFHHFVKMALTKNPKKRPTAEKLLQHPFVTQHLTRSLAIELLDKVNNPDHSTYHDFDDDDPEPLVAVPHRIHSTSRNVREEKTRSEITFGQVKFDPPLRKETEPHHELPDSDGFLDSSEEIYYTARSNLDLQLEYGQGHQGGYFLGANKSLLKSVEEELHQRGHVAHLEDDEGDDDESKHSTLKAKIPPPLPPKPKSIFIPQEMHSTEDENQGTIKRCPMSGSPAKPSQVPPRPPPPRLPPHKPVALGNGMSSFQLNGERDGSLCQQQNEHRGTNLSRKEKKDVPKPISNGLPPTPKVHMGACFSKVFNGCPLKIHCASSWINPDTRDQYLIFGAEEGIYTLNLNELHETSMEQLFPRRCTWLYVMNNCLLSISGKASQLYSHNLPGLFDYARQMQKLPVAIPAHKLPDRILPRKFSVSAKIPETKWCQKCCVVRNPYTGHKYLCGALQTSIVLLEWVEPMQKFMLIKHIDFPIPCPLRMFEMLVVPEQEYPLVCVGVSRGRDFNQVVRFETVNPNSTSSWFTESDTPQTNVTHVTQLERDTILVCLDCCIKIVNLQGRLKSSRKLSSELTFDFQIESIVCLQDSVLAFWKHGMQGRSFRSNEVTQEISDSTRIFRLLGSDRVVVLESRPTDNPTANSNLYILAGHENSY

[9] = target: ALK tyrosine kinase receptor (Homo sapiens, UniProt Q9UM73); assay: Selectivity interaction (KinomeScan (DiscoverX)) EUB0000092b ALK; settings: at 10 µM
[10] = target: T3, Interleukin-1 receptor-associated kinase 4 (Homo sapiens) (UniProt Q9NWZ3); settings: at 10 µM
T3 sequence (whole entry): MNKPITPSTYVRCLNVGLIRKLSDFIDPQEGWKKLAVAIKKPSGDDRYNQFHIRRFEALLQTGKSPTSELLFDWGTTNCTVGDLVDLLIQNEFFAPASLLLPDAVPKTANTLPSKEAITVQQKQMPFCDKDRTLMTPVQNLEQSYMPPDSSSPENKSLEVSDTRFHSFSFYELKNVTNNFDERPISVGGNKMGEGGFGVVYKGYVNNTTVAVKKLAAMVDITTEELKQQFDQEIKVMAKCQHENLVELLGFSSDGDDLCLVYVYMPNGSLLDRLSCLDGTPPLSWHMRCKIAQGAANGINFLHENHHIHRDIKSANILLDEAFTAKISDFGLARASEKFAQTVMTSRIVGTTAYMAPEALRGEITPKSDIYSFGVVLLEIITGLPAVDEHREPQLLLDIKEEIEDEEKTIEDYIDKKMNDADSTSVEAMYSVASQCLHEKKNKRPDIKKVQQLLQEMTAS

Sequence of Serine/threonine-protein kinase WNK1 (Homo sapiens) (Q9H4A3 whole entry, looked up): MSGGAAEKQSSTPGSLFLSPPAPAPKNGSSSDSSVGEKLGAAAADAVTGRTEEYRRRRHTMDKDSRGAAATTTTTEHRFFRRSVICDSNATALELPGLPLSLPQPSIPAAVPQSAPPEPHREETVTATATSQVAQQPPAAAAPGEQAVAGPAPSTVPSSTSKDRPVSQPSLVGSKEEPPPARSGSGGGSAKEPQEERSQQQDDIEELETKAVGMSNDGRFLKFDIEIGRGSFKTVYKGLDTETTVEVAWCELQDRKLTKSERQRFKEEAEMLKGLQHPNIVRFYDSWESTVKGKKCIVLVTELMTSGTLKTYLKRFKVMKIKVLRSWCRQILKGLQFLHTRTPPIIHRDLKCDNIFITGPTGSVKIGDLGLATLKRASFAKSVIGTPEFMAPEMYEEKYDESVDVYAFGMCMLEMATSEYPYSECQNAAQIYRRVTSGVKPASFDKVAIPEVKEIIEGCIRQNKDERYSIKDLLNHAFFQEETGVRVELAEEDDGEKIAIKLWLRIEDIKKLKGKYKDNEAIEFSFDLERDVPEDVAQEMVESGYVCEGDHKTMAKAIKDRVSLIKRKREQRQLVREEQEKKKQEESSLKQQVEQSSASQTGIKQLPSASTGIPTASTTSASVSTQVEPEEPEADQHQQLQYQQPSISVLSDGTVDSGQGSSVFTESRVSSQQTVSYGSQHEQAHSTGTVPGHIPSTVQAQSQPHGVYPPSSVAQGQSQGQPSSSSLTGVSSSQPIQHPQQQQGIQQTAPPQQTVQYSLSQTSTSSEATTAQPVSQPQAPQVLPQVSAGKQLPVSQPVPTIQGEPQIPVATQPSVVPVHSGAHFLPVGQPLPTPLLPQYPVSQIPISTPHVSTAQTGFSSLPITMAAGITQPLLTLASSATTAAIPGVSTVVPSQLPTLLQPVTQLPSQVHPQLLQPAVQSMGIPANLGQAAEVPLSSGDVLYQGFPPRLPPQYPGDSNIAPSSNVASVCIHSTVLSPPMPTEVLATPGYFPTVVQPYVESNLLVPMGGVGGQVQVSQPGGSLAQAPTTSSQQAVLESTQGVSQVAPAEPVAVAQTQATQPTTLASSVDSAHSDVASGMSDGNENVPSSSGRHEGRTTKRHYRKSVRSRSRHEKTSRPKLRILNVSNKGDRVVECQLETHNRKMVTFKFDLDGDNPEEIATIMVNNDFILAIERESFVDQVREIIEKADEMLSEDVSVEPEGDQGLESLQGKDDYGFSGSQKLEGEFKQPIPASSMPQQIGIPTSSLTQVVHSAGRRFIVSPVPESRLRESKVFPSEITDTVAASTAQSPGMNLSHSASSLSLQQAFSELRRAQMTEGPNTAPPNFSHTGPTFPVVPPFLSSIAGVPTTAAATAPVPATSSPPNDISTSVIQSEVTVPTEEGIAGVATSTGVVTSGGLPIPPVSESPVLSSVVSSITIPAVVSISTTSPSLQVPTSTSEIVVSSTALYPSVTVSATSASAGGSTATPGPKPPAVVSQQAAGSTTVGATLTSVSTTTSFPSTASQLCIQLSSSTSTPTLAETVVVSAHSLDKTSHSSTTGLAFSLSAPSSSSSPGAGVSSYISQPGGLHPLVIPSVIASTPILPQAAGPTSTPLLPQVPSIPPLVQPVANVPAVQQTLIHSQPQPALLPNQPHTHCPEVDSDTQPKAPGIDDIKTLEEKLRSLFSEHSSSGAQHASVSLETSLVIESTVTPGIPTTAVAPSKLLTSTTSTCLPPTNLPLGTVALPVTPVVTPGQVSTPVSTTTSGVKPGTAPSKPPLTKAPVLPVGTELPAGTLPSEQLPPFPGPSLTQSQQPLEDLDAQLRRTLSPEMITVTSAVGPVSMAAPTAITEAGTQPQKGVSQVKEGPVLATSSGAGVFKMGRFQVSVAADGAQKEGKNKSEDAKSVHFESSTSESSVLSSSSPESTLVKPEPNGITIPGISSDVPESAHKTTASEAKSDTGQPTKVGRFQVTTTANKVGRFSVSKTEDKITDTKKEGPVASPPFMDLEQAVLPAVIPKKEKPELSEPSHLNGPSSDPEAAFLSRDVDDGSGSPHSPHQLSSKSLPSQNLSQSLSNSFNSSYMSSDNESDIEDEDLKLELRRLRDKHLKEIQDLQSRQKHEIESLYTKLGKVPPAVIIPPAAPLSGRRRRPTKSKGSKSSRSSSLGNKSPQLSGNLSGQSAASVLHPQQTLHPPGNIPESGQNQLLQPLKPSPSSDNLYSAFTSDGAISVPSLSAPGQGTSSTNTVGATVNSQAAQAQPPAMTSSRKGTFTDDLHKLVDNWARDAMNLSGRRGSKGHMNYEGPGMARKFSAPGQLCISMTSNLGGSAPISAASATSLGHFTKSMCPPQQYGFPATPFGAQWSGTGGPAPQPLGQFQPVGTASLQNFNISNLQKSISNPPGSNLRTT
Sequence of Serine/threonine-protein kinase B-raf (Homo sapiens) (P15056 whole entry): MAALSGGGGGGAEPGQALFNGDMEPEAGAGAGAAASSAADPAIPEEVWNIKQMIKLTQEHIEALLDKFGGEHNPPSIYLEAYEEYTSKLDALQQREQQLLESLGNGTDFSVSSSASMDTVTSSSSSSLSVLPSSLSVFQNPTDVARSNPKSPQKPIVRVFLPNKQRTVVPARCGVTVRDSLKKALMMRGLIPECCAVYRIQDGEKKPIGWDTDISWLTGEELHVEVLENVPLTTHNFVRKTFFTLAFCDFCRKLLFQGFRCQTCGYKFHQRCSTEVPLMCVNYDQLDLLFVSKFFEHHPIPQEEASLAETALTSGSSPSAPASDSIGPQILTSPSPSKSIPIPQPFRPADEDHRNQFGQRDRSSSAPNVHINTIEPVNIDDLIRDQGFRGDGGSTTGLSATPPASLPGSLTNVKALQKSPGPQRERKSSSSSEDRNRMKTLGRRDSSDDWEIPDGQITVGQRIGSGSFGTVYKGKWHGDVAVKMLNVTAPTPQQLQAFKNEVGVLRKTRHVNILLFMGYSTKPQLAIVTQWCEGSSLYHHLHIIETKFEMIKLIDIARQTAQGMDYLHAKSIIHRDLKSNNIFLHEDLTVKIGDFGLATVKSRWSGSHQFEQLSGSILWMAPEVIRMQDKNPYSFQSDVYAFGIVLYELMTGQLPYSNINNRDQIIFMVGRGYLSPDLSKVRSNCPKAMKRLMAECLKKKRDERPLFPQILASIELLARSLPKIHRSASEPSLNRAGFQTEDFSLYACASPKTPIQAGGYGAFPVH
Sequence of ALK tyrosine kinase receptor (Q9UM73 19-1620 limits assumed): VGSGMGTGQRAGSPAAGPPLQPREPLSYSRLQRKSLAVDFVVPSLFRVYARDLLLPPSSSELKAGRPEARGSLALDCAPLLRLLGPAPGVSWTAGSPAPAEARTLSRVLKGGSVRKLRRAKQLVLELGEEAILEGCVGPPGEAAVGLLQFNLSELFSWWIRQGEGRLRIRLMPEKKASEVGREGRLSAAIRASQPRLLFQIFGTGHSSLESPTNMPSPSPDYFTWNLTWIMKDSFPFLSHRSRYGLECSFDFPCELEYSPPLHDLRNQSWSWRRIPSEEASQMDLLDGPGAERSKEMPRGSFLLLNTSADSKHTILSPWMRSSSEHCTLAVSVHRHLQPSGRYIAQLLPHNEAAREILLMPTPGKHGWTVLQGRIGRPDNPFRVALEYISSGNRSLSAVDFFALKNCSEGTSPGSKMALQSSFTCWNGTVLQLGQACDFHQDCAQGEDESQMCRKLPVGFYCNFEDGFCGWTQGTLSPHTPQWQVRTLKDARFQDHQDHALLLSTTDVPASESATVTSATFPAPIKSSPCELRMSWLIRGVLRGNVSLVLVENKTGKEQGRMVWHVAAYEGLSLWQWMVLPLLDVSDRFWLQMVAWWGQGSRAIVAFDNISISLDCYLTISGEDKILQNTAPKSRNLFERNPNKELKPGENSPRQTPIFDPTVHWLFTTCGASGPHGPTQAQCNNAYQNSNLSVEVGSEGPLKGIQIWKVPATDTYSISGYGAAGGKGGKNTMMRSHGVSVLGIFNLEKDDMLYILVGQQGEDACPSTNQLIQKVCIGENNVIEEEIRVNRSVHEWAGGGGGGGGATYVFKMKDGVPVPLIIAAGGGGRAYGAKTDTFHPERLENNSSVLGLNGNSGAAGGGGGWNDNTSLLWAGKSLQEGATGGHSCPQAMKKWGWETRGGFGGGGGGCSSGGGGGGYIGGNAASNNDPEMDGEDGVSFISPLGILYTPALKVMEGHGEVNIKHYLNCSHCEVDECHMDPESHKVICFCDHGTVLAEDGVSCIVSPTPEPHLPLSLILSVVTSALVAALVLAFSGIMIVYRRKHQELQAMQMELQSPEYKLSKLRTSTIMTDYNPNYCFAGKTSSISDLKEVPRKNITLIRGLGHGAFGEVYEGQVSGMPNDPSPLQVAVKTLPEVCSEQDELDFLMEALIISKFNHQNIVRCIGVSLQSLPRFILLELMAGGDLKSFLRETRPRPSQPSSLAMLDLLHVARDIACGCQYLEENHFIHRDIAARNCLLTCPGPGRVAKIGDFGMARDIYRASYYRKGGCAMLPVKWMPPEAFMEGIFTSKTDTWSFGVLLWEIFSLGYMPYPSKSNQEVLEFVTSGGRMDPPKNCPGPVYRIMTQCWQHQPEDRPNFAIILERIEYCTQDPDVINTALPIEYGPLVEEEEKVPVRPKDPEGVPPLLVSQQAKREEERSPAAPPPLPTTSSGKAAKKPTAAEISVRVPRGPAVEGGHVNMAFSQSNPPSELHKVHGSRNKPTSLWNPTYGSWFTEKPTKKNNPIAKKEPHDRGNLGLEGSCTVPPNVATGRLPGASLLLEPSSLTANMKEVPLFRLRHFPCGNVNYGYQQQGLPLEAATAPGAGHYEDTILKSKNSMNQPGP

- % of control [1]: 2.69%
Structure (SMILES): Cn1cc(-n2cnc3c(NCc4nc5cc(Cl)c(Cl)cc5[nH]4)nc(N4CCOCC4)nc32)cn1

Structure (SMILES): O=C(NOC[C@H](O)CO)c1ccc(F)c(F)c1Nc1ccc(I)cc1F
- % of control [2]: 100%

Structure (SMILES): CNC(=O)Nc1ccc(-c2nc(N3CC4CCC(C3)O4)c3cnn(C4CCC5(CC4)OCCO5)c3n2)cc1
- % of inhibition [3]: 7%
- % of inhibition [4]: 17%

- % of inhibition [5]: 62%
Structure (SMILES): Cc1ccc(-c2ccc3c(ccc4sc5c(c43)NC[C@@H](C)NC5=O)n2)cn1

- % of inhibition ([6]; at 0.01 µM): 10.1%
- % of inhibition ([6]; at 0.04 µM): 23.3%
- % of inhibition ([6]; at 0.2 µM): 9.7%
- % of inhibition ([6]; at 1 µM): 3.1%
- % of inhibition ([6]; at 5 µM): 3%
Structure (SMILES): CC[C@@H]1[C@H](F)C(=O)N[C@@H]1COc1nccc2cc(C(N)=O)c(OC)cc12 [ZIMLOVISERTIB]

- dTM [7]: 1.7 K
Structure (SMILES): CN(C(=O)c1cnn2cccnc12)c1cc2c(cc1N1CCOCC1)C(=O)N(C[C@@H](F)C(C)(C)O)C2

Structure (SMILES): CN(C)C/C=C/C(=O)Nc1ccc(C(=O)N2CCCC(Nc3ncc(Cl)c(-c4c[nH]c5ccccc45)n3)C2)cc1 (centres undefined)
- % of control [8]: 95%

Structure (SMILES): CCC(=O)N1CCN(c2ccc(-n3c(=O)ccc4cnc5ccc(-c6cnc7ccccc7c6)cc5c43)cc2C(F)(F)F)CC1
- % of control [9]: 80%

Structure (SMILES): Cc1cc([C@@H](C)Nc2ccccc2C(=O)O)c2nc(N3CCOCC3)cc(=O)n2c1 [AZD-6482]
- % of control [10]: 100%
